According to the NIST ThermoML archive (doi:10.1016/j.jct.2013.04.022):

Key:
[1] = 298.15 K, 85.9 kPa, Liquid; for viscosity: Capillary tube (Ostwald / Ubbelohde) method; for mass density: Vibrating tube method
[2] = refractive index (Na D-line) (dimensionless); conditions: 298.15 K; 85.9 kPa; Liquid; Standard Abbe refractometry
[3] = mn = molality of the nth substance listed, in mol/kg; conditions: 298.15 K, 85.9 kPa, Liquid; for viscosity: Capillary tube (Ostwald / Ubbelohde) method; for mass density: Vibrating tube method

C[S+](C)[O-] [dimethyl sulfoxide]
Conditions | mass density [kg/m3] | refractive index | viscosity [mPa·s]
[1] | 1095.29 | – | 1.867
[2] | – | 1.4762 | –

Oc1ccccc1C=Nc1ccccc1N=Cc1ccccc1O [2,2'-[1,2-phenylenebis(nitrilomethylidyne)]bis-phenol] + C[S+](C)[O-]
[3]
Conditions | mass density [kg/m3] | viscosity [mPa·s]
m1 = 0.0099 | 1095.61 | 1.998
m1 = 0.0307 | 1096.3 | 2.041
m1 = 0.0493 | 1096.92 | 2.073
m1 = 0.07 | 1097.62 | 2.109
m1 = 0.0911 | 1098.35 | 2.151
m1 = 0.1086 | 1098.95 | 2.208
m1 = 0.1311 | 1099.71 | 2.229
m1 = 0.1483 | 1100.31 | 2.289
m1 = 0.1717 | 1101.2 | 2.333

CC(=O)N(C)C [N,N-dimethylethanamide]
Conditions | mass density [kg/m3] | refractive index | viscosity [mPa·s]
[1] | 936.57 | – | 0.961
[2] | – | 1.436 | –

Oc1ccccc1C=Nc1ccccc1N=Cc1ccccc1O [2,2'-[1,2-phenylenebis(nitrilomethylidyne)]bis-phenol] + CC(=O)N(C)C
[3]
Conditions | mass density [kg/m3] | viscosity [mPa·s]
m1 = 0.0106 | 937.33 | 0.954
m1 = 0.0323 | 938.87 | 0.975
m1 = 0.0497 | 940.11 | 0.992
m1 = 0.0704 | 941.6 | 1.012
m1 = 0.0899 | 942.99 | 1.031
m1 = 0.1092 | 944.36 | 1.049
m1 = 0.129 | 945.78 | 1.069
m1 = 0.1492 | 947.22 | 1.087
m1 = 0.174 | 949.06 | –
m1 = 0.1742 | – | 1.011

CCCCn1cc[n+](C)c1.[Br-] [1-butyl-3-methylimidazolium bromide] + CC(=O)N(C)C
[3]
Conditions | mass density [kg/m3]
m1 = 0.0527 | 944.36
m1 = 0.1475 | 946.97
m1 = 0.1994 | 950.03

CCCCn1cc[n+](C)c1.[Br-] [1-butyl-3-methylimidazolium bromide] + C[S+](C)[O-]
[3]
Conditions | mass density [kg/m3]
m1 = 0.0751 | 1099.03
m1 = 0.0981 | 1099.68
m1 = 0.1923 | 1103.73
